According to paper PMC5038265 (Antimicrobial Agents and Chemotherapy, 2016):
Values after ≈ are worked out from the molar mass of the structure shown. Read-outs that look alike come from different tables or passages of the source.

How the values were obtained:
M. tuberculosis H37Rv [1] = experiment: microbe, parasite or virus in culture; type: cell-based; settings: Mycobacterium tuberculosis, read-out: MIC on Middlebrook 7H10 agar
M. tuberculosis H37Rv [2] = experiment: MIC for M. tuberculosis H37Rv (resazurin/alamarBlue); type: cell-based, Mycobacterium tuberculosis; settings: for MIC values used in kill kinetics experiment: M. tuberculosis H37Rv, Fig. 6; for MIC: Mycobacterium tuberculosis, H37RV, read-out: MIC M.tb H37Rv
M. tuberculosis LeuRS = M. tuberculosis LeuRS (Mycobacterium tuberculosis, UniProt P9WFV1); experiment: biochemical; set-up: species or system M. tuberculosis H37Rv
Vero cells = experiment: In vitro cytotoxicity assay (MTT); type: cell-based, African green monkey; settings: Chlorocebus sabaeus, 72 h
Protocol: Vero epithelial cells (from African green monkey; ATCC CCL-81) were cultured in Dulbecco's modified Eagle's medium (DMEM) supplemented with 10% fetal bovine serum (FBS) and maintained in a humidified incubator (37°C in 5% CO2). Cells were dislodged with a cell scraper, collected by centrifugation, resuspended in fresh medium at ∼10^6 cells/ml, dispensed into 96-well microtiter plates ([…]), and incubated for 18 h at 37°C. Twofold serial dilutions of test compounds in DMEM with FBS were subsequently added, and cells were incubated for another 72 h. In triplicate studies, the cytopathic effects of compounds were evaluated colorimetrically by using the 3-(4,5-dimethyl-2-thiazolyl)-2,5-diphenyl-2H-tetrazolium bromide (MTT) cell proliferation assay (ATCC). IC50 data were obtained from dose-response curves plotted by using GraphPad Prism 5.

[3] = test system: M. smegmatis ATCC 700084 and leuS resistant mutants; experiment: Liquid culture MIC for compound 1-resistant M. smegmatis mutants; type: cell-based, Mycobacterium smegmatis; settings: Mycolicibacterium smegmatis
Description: Mutants resistant to compound 1 were isolated on Middlebrook 7H10 medium plus 10% (vol/vol) oleic albumin dextrose catalase (OADC) supplement (Becton Dickinson) containing compound 1 at 4× MIC. Resistance was confirmed by measuring the mutant MIC values essentially as described previously by Collins and Franzblau ([17]).

in vivo = settings: 30 mg/kg
Protocol: Mouse pharmacokinetic studies were conducted by using female CD-1 mice for compounds 1, 11, and 12, while BALB/c mice were used for compound 13. Mouse body weights were 19 to 28 g, and on the morning of dosing, mice were split randomly into 3 dosing groups to receive the test article by either intravenous (i.v.) tail vein injection or oral (p.o.) gavage. After dosing, blood samples were collected via cardiac puncture at specific time points (n = 3 mice/time point) through 24 h (K2EDTA as an anticoagulant) and processed for plasma. Antibiotic concentrations in the plasma samples were analyzed by liquid chromatography-tandem mass spectrometry (LC-MS/MS). The LC-MS/MS analysis was conducted by using analyte/internal standard peak area methods. The internal standard was AN3365 ([21]), and the instrument used was an API4000 QTRAP instrument (AB Sciex). The limit of quantitation (LOQ) was 1 or 2 ng/ml. Pharmacokinetic analyses of the mean plasma concentration-time profiles were performed by using WinNonlin Pro version 5.2. A compartmental model was used for the data for i.v. dosing, and a noncompartmental model was used for the data for p.o. dosing. […] Compounds 1 and 13 were formulated in saline (0.9% [wt/vol] NaCl) at 7.5 mg/ml, and the pH was adjusted to >5 by the addition of NaOH. Compound 11 was formulated to 6.5 mg/ml in water-dimethylacetamide-ethanol (EtOH) (76:19:5), and the pH was adjusted to >5 by the addition of NaOH. Compound 12 was formulated to 7.5 mg/ml in PEG 300-propylene glycol (PG)-water (55:25:20), and the pH was adjusted to >5 by the addition of NaOH.

SDHA in HepG2 cells = experiment: Mitochondrial protein synthesis assay, SDHA level; type: cell-based; settings: Homo sapiens, 168 h; HepG2, 7 days; read-out: Mean EC50 ± SD SDHA
Protocol: (§1) The human liver carcinoma-derived HepG2 cell line was obtained from the ATCC (ATCC HB-8065). HepG2 cells were grown in Dulbecco's modified Eagle's medium containing 10% fetal calf serum, 1 mM sodium pyruvate, 0.1 mM essential amino acids, and 50 U/ml penicillin-streptomycin at 37°C with 5% CO2. HepG2 cells were seeded into 96-well plates at 3,000 cells/200 μl/well in cell culture medium. Cells were then grown in the presence of the compounds at 37°C in 10% CO2 for 7 days in at least duplicate concentrations, with the medium and compounds being replaced on the fourth day. After 7 days, the levels of SDHA (subunit A of the succinate dehydrogenase complex) and COX1 (cytochrome c oxidase) were determined by using the MitoSciences In-Cell enzyme-linked immunosorbent assay (ELISA) kit. Janus green staining was used to determined cell viability after 7 days (In-Cell ELISA kit, catalog number MS643).

M. tuberculosis H37Rv [4] = type: in vivo, C57BL/6J mice; settings: 30 mg/kg QD, 8 weeks, lungs
M. tuberculosis H37Rv [5] = test system: M. tuberculosis H37Rv; set-up: species or system C57BL/6J mice; settings: mouse, in vivo
COX1 in HepG2 cells = experiment: Mitochondrial protein synthesis assay, COX1 level; type: cell-based; settings: Homo sapiens, 168 h; HepG2, 7 days; read-out: Mean EC50 ± SD COX1
Protocol: as §1

HepG2 cells = experiment: HepG2 cell viability (Janus green staining); type: cell-based; settings: Homo sapiens, 168 h, HepG2, 7 days, read-out: Mean EC50 ± SD Cell viability
Protocol: as §1

M. tuberculosis H37Rv [6] = experiment: Time-kill assay; type: cell-based

Sequence of M. tuberculosis LeuRS (P9WFV1 whole entry): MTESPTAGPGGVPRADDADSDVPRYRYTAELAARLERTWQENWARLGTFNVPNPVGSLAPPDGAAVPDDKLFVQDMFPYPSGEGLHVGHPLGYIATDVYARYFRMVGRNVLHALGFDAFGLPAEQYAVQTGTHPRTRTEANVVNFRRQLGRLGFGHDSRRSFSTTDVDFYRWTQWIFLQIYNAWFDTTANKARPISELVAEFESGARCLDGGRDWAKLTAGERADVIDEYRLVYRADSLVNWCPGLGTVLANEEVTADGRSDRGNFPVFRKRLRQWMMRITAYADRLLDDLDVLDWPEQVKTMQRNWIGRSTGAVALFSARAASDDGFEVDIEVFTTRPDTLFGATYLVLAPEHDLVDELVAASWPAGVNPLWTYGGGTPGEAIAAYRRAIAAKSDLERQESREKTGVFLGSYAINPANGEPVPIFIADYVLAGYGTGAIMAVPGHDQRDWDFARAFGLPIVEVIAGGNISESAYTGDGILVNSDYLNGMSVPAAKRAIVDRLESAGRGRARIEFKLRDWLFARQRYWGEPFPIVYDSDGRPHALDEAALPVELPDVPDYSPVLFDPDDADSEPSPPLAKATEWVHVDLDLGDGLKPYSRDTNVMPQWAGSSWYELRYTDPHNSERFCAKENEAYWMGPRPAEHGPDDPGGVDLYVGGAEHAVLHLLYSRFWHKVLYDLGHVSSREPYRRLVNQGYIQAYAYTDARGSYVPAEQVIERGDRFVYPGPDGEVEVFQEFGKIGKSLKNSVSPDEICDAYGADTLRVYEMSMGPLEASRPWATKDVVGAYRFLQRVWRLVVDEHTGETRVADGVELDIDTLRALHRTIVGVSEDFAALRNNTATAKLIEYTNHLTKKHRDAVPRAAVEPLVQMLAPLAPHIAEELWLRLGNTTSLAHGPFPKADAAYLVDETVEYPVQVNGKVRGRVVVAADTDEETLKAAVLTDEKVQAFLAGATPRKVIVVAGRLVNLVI

Q: With `COc1c(N2C[C@@H]3CCCN[C@@H]3C2)c(F)cc2c(=O)c(C(=O)O)cn(C3CC3)c12` [Moxifloxacin, moxifloxacin, reference compound] as the compound, how does the MIC (M. tuberculosis H37Rv [1]) read?
A: The MIC was 0.08 mg/L (≈ 0.199 µM).

Q: And the “MIC values used in kill kinetics experiment” value (M. tuberculosis H37Rv [2])?
A: The value was 0.06 mg/L (≈ 0.149 µM).

Q: Which results are given for `CCOc1cccc2c1B(O)OC2CN` (stereo not shown) [Compound 1]?
A: IC50 (M. tuberculosis LeuRS; read-out: IC50 M.tb LeuRS): 0.28 µM; EC50 (Vero cells): > 50 µM; MIC (M. tuberculosis H37Rv [2]): 0.26 mg/L (≈ 1.26 µM); MIC ([3]; ATCC700084, M. smegmatis ATCC 700084, liquid culture): 1 mg/L (≈ 4.83 µM); MIC ([3]; ATCC700084, M. smegmatis RM1 leuS Δ421–462, liquid culture): > 256 mg/L; AUC(0-t) (in vivo; CD-1, mouse, in vivo, po): 15 µg·h/mL; Cmax (in vivo; CD-1, mouse, in vivo, po): 4.33 µg/mL; bioavailability (in vivo; CD-1, mouse, in vivo, po): 55%

Q: What does the source list for `CCOc1ccc(Br)c2c1B(O)O[C@@H]2CN` [Compound 14]?
A: EC50 (SDHA in HepG2 cells): 21.5 ± 6.4 µM; reduction in CFU (M. tuberculosis H37Rv [4]): 2.4 log10; efficacy in murine model of acute TB infection (M. tuberculosis H37Rv [5]): more active at lower doses than linezolid; MIC (M. tuberculosis H37Rv [1]): 0.2 mg/L (≈ 0.699 µM); IC50 (M. tuberculosis LeuRS): 0.08 µM; MIC values used in kill kinetics experiment (M. tuberculosis H37Rv [2]): 0.013 mg/L (≈ 0.0455 µM); MIC (M. tuberculosis H37Rv [2]): 0.02 mg/L (≈ 0.0699 µM); EC50 (COX1 in HepG2 cells): > 150 µM; EC50 (HepG2 cells): 106 ± 37.5 µM; in vitro kill kinetics profile (M. tuberculosis H37Rv [6]): very similar to that of the bacteriostatic protein synthesis inhibitor linezolid; α-t1/2 % AUC (in vivo; mouse, i.v.): 5 % AUC; β-t1/2 % AUC (in vivo; mouse, i.v.): 95 % AUC; AUC(0-inf) (in vivo; mouse, in vivo, iv): 43.7 µg·h/mL; Cmax (in vivo; mouse, in vivo, iv): 17.1 µg/mL; MRT (in vivo; mouse, in vivo, iv): 4.7 h; Vd (in vivo; mouse, in vivo, iv): 3.22 L/kg; clearance (in vivo; mouse, in vivo, iv): 0.687 L/h/kg; half-life (in vivo; mouse, in vivo, iv, α-t1/2, mouse): 0.05 h; half-life (in vivo; mouse, in vivo, iv, β-t1/2, mouse): 3.4 h; AUC(0-t) (in vivo; mouse, in vivo, po): 57.6 µg·h/mL; Cmax (in vivo; mouse, in vivo, po): 6.3 µg/mL; Tmax (in vivo; mouse, in vivo, po): 0.5 h; bioavailability (in vivo; mouse, in vivo, po): 100%; half-life (in vivo; mouse, in vivo, po, Terminal t1/2, mouse): 3.6 h
